# According to patent publication US20190367448A1, “TREATMENT OF SLEEP-WAKE DISORDERS” (SK Biopharmaceuticals Co., Ltd., priority 2005, published 2019):
# Tested on: male adult Sprague Dawley rats
# Experiment: Sleep-wake organization in rats, polysomnographic recording (EEG, EOG, EMG, body movement) for 16 hours after acute i.p. administration
# Assay type: in vivo, rat
# Details: for Duration (min) Active wake / Duration (min) Deep sleep / Duration (min) Light sleep / Duration (min) Passive wake / Duration (min) REM sleep / Duration (min) intermediate stage / ISWS/TST (%) / Latency (min) ISWS / Latency (min) REM sleep / Latency (min) dSWS / REMS/TST (%) / Shifts (number) Shift from ISWS to AW / Shifts (number) Shift from ISWS to PW / Shifts (number) Shift from REMS to AW / Shifts (number) Shift from REMS to PW / Shifts (number) Shift from dSWS to AW / Shifts (number) Shift from dSWS to PW / Total sleep time TST / dSWS/TST (%): 16 hours recording period; for change in mean duration of REM sleep stage / change in number of REM sleep epochs / change in number of active wake epochs / change in number of deep sleep epochs / change in number of light sleep epochs / change in total time spent in REM sleep / change in total time spent in active wakefulness / change in total time spent in deep (rebound) sleep / change in total time spent in light sleep / change in mean duration of deep sleep stage: 16 hours recording; for change in total time spent in REM sleep / change in total time spent in active wakefulness / change in total time spent in deep (rebound) sleep / change in total time spent in light sleep: vs vehicle
smiles,measurement,setting,value
"CC(N)Cc1ccccc1 (stereo not shown) [Amphetamine, amphetamine]",period of enhanced active wakefulness,"rats, 1 mg/kg",3 h
same,"period of reduction in light, deep and REM sleep durations","rats, 1 mg/kg",3 h
same,Duration (min) Active wake,"rats, 1 mg/kg i.p.",382.4 min
same,Duration (min) Deep sleep,"rats, 1 mg/kg i.p.",188.0 min
same,Duration (min) Light sleep,"rats, 1 mg/kg i.p.",242.7 min
same,Duration (min) Passive wake,"rats, 1 mg/kg i.p.",50.0 min
same,Duration (min) REM sleep,"rats, 1 mg/kg i.p.",88.6 min
same,Duration (min) intermediate stage,"rats, 1 mg/kg i.p.",4.0 min
same,ISWS/TST (%),"rats, 1 mg/kg i.p.",45.1 ± 5.3 %
same,Latency (min) ISWS,"rats, 1 mg/kg i.p.",140.6 ± 13.4 min
same,Latency (min) REM sleep,"rats, 1 mg/kg i.p.",208.6 ± 14.4 min
same,Latency (min) dSWS,"rats, 1 mg/kg i.p.",161.7 ± 5.3 min
same,REMS/TST (%),"rats, 1 mg/kg i.p.",16.9 ± 0.9%
same,Shifts (number) Shift from ISWS to AW,"rats, 1 mg/kg i.p.",198.8 number
same,Shifts (number) Shift from ISWS to PW,"rats, 1 mg/kg i.p.",64.4 number
same,Shifts (number) Shift from REMS to AW,"rats, 1 mg/kg i.p.",66.5 number
same,Shifts (number) Shift from REMS to PW,"rats, 1 mg/kg i.p.",5.8 number
same,Shifts (number) Shift from dSWS to AW,"rats, 1 mg/kg i.p.",11.7 number
same,Shifts (number) Shift from dSWS to PW,"rats, 1 mg/kg i.p.",37.7 number
same,Total sleep time TST,"rats, 1 mg/kg i.p.",523.3 ± 25.3 min
same,dSWS/TST (%),"rats, 1 mg/kg i.p.",36.6 ± 5.7 %
same,change in mean duration of REM sleep stage,"rats, 1 mg/kg",−16%
same,change in number of REM sleep epochs,"rats, 1 mg/kg",−4%
same,change in number of active wake epochs,"rats, 1 mg/kg",+27%
same,change in number of deep sleep epochs,"rats, 1 mg/kg",+73%
same,change in number of light sleep epochs,"rats, 1 mg/kg",−35%
same,change in total time spent in REM sleep,"rats, 1 mg/kg",−4%
same,change in total time spent in active wakefulness,"rats, 1 mg/kg",+27%
same,change in total time spent in deep (rebound) sleep,"rats, 1 mg/kg",+73%
same,change in total time spent in light sleep,"rats, 1 mg/kg",−35%
same,period of enhanced active wakefulness,"rats, 3 mg/kg",4 h
same,"period of reduction in light, deep and REM sleep durations","rats, 3 mg/kg",4 h
same,Duration (min) Active wake,"rats, 3 mg/kg i.p.",441.8 min
same,Duration (min) Deep sleep,"rats, 3 mg/kg i.p.",207.6 min
same,Duration (min) Light sleep,"rats, 3 mg/kg i.p.",187.9 min
same,Duration (min) Passive wake,"rats, 3 mg/kg i.p.",43.5 min
same,Duration (min) REM sleep,"rats, 3 mg/kg i.p.",71.4 min
same,Duration (min) intermediate stage,"rats, 3 mg/kg i.p.",4.0 min
same,ISWS/TST (%),"rats, 3 mg/kg i.p.",38.3 ± 3.4 %
same,Latency (min) ISWS,"rats, 3 mg/kg i.p.",228.2 ± 25.0 min
same,Latency (min) REM sleep,"rats, 3 mg/kg i.p.",338.6 ± 24.3 min
same,Latency (min) dSWS,"rats, 3 mg/kg i.p.",242.0 ± 19.4 min
same,REMS/TST (%),"rats, 3 mg/kg i.p.",14.7 ± 0.7%
same,Shifts (number) Shift from ISWS to AW,"rats, 3 mg/kg i.p.",178.7 number
same,Shifts (number) Shift from ISWS to PW,"rats, 3 mg/kg i.p.",62.4 number
same,Shifts (number) Shift from REMS to AW,"rats, 3 mg/kg i.p.",59.3 number
same,Shifts (number) Shift from REMS to PW,"rats, 3 mg/kg i.p.",3.3 number
same,Shifts (number) Shift from dSWS to AW,"rats, 3 mg/kg i.p.",14.8 number
same,Shifts (number) Shift from dSWS to PW,"rats, 3 mg/kg i.p.",26.6 number
same,Total sleep time TST,"rats, 3 mg/kg i.p.",460.9 ± 12.0 min
same,dSWS/TST (%),"rats, 3 mg/kg i.p.",46.0 ± 3.0 %
same,change in mean duration of REM sleep stage,"rats, 3 mg/kg",−23%
same,change in mean duration of deep sleep stage,"rats, 3 mg/kg",−19%
same,change in number of REM sleep epochs,"rats, 3 mg/kg",−22%
same,change in number of active wake epochs,"rats, 3 mg/kg",+47%
same,change in number of deep sleep epochs,"rats, 3 mg/kg",+91%
same,change in number of light sleep epochs,"rats, 3 mg/kg",−49%
same,change in total time spent in REM sleep,"rats, 3 mg/kg",−22%
same,change in total time spent in active wakefulness,"rats, 3 mg/kg",+47%
same,change in total time spent in deep (rebound) sleep,"rats, 3 mg/kg",+91%
same,change in total time spent in light sleep,"rats, 3 mg/kg",−49%
same,period of enhanced active wakefulness,"rats, 10 mg/kg",6 h
same,"period of reduction in light, deep and REM sleep durations","rats, 10 mg/kg",6 h
same,Duration (min) Active wake,"rats, 10 mg/kg i.p.",498.7 min
same,Duration (min) Deep sleep,"rats, 10 mg/kg i.p.",181.2 min
same,Duration (min) Light sleep,"rats, 10 mg/kg i.p.",182.0 min
same,Duration (min) Passive wake,"rats, 10 mg/kg i.p.",35.6 min
same,Duration (min) REM sleep,"rats, 10 mg/kg i.p.",53.6 min
same,Duration (min) intermediate stage,"rats, 10 mg/kg i.p.",4.0 min
same,ISWS/TST (%),"rats, 10 mg/kg i.p.",43.2 ± 5.7 %
same,Latency (min) ISWS,"rats, 10 mg/kg i.p.",284.7 ± 56.1 min
same,Latency (min) REM sleep,"rats, 10 mg/kg i.p.",440.8 ± 57.8 min
same,Latency (min) dSWS,"rats, 10 mg/kg i.p.",367.3 ± 5.5 min
same,REMS/TST (%),"rats, 10 mg/kg i.p.",13.0 ± 0.9%
same,Shifts (number) Shift from ISWS to AW,"rats, 10 mg/kg i.p.",201.7 number
same,Shifts (number) Shift from ISWS to PW,"rats, 10 mg/kg i.p.",49.0 number
same,Shifts (number) Shift from REMS to AW,"rats, 10 mg/kg i.p.",50.0 number
same,Shifts (number) Shift from REMS to PW,"rats, 10 mg/kg i.p.",2.2 number
same,Shifts (number) Shift from dSWS to AW,"rats, 10 mg/kg i.p.",9.7 number
same,Shifts (number) Shift from dSWS to PW,"rats, 10 mg/kg i.p.",11.6 number
same,Total sleep time TST,"rats, 10 mg/kg i.p.",422.9 ± 19.5 min
same,dSWS/TST (%),"rats, 10 mg/kg i.p.",42.9 ± 5.3 %
same,change in mean duration of REM sleep stage,"rats, 10 mg/kg",−36%
same,change in mean duration of deep sleep stage,"rats, 10 mg/kg",−30%
same,change in number of REM sleep epochs,"rats, 10 mg/kg",−41%
same,change in number of active wake epochs,"rats, 10 mg/kg",+66%
same,change in number of deep sleep epochs,"rats, 10 mg/kg",+66%
same,change in number of light sleep epochs,"rats, 10 mg/kg",−51%
same,change in total time spent in REM sleep,"rats, 10 mg/kg",−41%
same,change in total time spent in active wakefulness,"rats, 10 mg/kg",+66%
same,change in total time spent in deep (rebound) sleep,"rats, 10 mg/kg",+66%
same,change in total time spent in light sleep,"rats, 10 mg/kg",−51%
same,latencies of all sleep states,"rats, 1, 3, 10 mg/kg",significantly increased
same,mean duration of light sleep,"rats, 1, 3, and 10 mg/kg",not significantly modified
same,mean duration of active wake,"rats, different doses (1, 3, 10 mg/kg)",not modified
same,period of increased wakefulness and reduced sleep states following administration,"rats, dose-dependent, 1, 3, 10 mg/kg",3 to 8 h
same,effect on the time spent in deep sleep stage,"rats, reduced during 3-6 hours following the injection, then increased (rebound)",biphasic effect
